Data on seven compounds can be found in ChEMBL document CHEMBL2380193, “New trifluoromethyl quinolone derivatives: synthesis and investigation of antimicrobial properties” (2013).

In brackets after ≈: the same amount, converted by molar mass.

For orientation: MIC means the least concentration at which growth counts as inhibited. Read a high MIC as weaker potency.

For assay [1], the system named is Candida albicans. Description: Antifungal activity against Candida albicans MTCC 227 assessed as zone of inhibition at 100 ug/ml after 30 hrs by cup plate method. The following applies: MTCC 227, 30 h, read-out: IZ. It counts as functional.
In assay [2] the test system is Candida albicans. In words: Antifungal activity against Candida albicans MTCC 227 after 30 hrs by serial dilution method. It counts as functional. The following applies: MTCC 227, 30 h.
The subject of assay [3] is Aspergillus flavus. Description: Antifungal activity against Aspergillus flavus MTCC 277 assessed as zone of inhibition at 100 ug/ml after 30 hrs by cup plate method. The settings on record: MTCC 277, 30 h, read-out: IZ. Type of assay: functional.
Assay [4] deals with Aspergillus flavus. In words: Antifungal activity against Aspergillus flavus MTCC 277 after 30 hrs by serial dilution method. Type of assay: functional. The settings on record: MTCC 277, 30 h.
Assay [5] deals with Aspergillus fumigatus. Description: Antifungal activity against Aspergillus fumigatus MTCC 343 assessed as zone of inhibition at 100 ug/ml after 30 hrs by cup plate method. It counts as functional. The settings on record: MTCC 343, 30 h, read-out: IZ.
Assay [6] has as its system Aspergillus fumigatus. Description: Antifungal activity against Aspergillus fumigatus MTCC 343 after 30 hrs by serial dilution method. It counts as functional. The settings on record: MTCC 343, 30 h.
The subject of assay [7] is Aspergillus niger. Description: Antifungal activity against Aspergillus niger MTCC 282 assessed as zone of inhibition at 100 ug/ml after 30 hrs by cup plate method. Type of assay: functional. The following applies: MTCC 282, 30 h, read-out: IZ.
Assay [8] has as its system Aspergillus niger. Description: Antifungal activity against Aspergillus niger MTCC 282 after 30 hrs by serial dilution method. Type of assay: functional. The settings on record: MTCC 282, 30 h.
In assay [9] the test system is Klebsiella pneumoniae. In words: Antibacterial activity against Klebsiella pneumoniae MTCC 432 assessed as zone of inhibition at 100 ug/ml after 14 hrs by cup plate method. It counts as functional. The settings on record: MTCC 432, 14 h, read-out: IZ.
In assay [10] the test system is Klebsiella pneumoniae. In words: Antibacterial activity against Klebsiella pneumoniae MTCC 432 after 14 hrs by serial dilution method. It counts as functional. The settings on record: MTCC 432, 14 h.
Assay [11] concerns Salmonella typhi. In words: Antibacterial activity against Salmonella typhi MTCC 733 assessed as zone of inhibition at 100 ug/ml after 14 hrs by cup plate method. It counts as functional, Salmonella enterica subsp. enterica serovar Typhi. The settings on record: Salmonella enterica, MTCC 733, 14 h; read-out: IZ.
Assay [12] relates to Salmonella typhi. Description: Antibacterial activity against Salmonella typhi MTCC 733 after 14 hrs by serial dilution method. Type of assay: functional, Salmonella enterica subsp. enterica serovar Typhi. The settings on record: Salmonella enterica, MTCC 733, 14 h.
Assay [13] concerns Escherichia coli. Description: Antibacterial activity against Escherichia coli MTCC 443 assessed as zone of inhibition at 100 ug/ml after 14 hrs by cup plate method. It counts as functional. The following applies: MTCC 443, 14 h, read-out: IZ.
The subject of assay [14] is Bacillus subtilis. Description: Antibacterial activity against Bacillus subtilis MTCC 441 after 14 hrs by serial dilution method. It counts as functional. The settings on record: MTCC 441, 14 h.
For assay [15], the system named is Staphylococcus aureus. In words: Antibacterial activity against Staphylococcus aureus MTCC 096 assessed as zone of inhibition at 100 ug/ml after 14 hrs by cup plate method. It counts as functional. The settings on record: MTCC 096, 14 h, read-out: IZ.
Assay [16] concerns Staphylococcus aureus. In words: Antibacterial activity against Staphylococcus aureus MTCC 096 after 14 hrs by serial dilution method. Type of assay: functional. The settings on record: MTCC 096, 14 h.
Assay [17] deals with Escherichia coli. Description: Antibacterial activity against Escherichia coli MTCC 443 after 14 hrs by serial dilution method. It counts as functional. The settings on record: MTCC 443, 14 h.
In assay [18] the test system is Bacillus subtilis. In words: Antibacterial activity against Bacillus subtilis MTCC 441 assessed as zone of inhibition at 100 ug/ml after 14 hrs by cup plate method. It counts as functional. The settings on record: MTCC 441, 14 h, read-out: IZ.

As for `COc1ccc2c(c1)c(=O)cc(C(F)(F)F)n2CCCCN1C(=O)c2ccccc2C1=O`, the zone of inhibition at 100 µg/mL in the assay with Candida albicans [1] was 15 mm; with Aspergillus flavus [3], under 10 mm; with Aspergillus fumigatus [5], under 10 mm; in the assay with Aspergillus niger [7] it was 12 mm; in the assay on Klebsiella pneumoniae [9], 16 mm; with Salmonella typhi [11], under 10 mm. Moreover, the zone of inhibition at 100 µg/mL in the assay on Escherichia coli [13] was under 10 mm; in the assay on Staphylococcus aureus [15], 16 mm; with Bacillus subtilis [18], 13 mm. In addition, the MIC against Candida albicans [2] was found to be 6.25 µg/mL (≈ 14.1 µM); against Aspergillus flavus [4], 25 µg/mL (≈ 56.3 µM); against Aspergillus fumigatus [6], 25 µg/mL (≈ 56.3 µM); in the assay on Aspergillus niger [8], 12.5 µg/mL (≈ 28.1 µM); against Klebsiella pneumoniae [10], 6.25 µg/mL (≈ 14.1 µM); with Salmonella typhi [12], 25 µg/mL (≈ 56.3 µM). Also, the MIC with Bacillus subtilis [14] amounted to 12.5 µg/mL (≈ 28.1 µM); in the assay with Staphylococcus aureus [16], 6.25 µg/mL (≈ 14.1 µM); against Escherichia coli [17], 50 µg/mL (≈ 113 µM).
As to `CN1CCN(CCCCn2c(C(F)(F)F)cc(=O)c3cc(F)ccc32)CC1`, the zone of inhibition at 100 µg/mL with Candida albicans [1] is 12 mm; in the assay with Aspergillus flavus [3], under 10 mm; with Aspergillus fumigatus [5], 12 mm; in the assay on Aspergillus niger [7], 14 mm; in the assay with Klebsiella pneumoniae [9] it was under 10 mm; with Salmonella typhi [11] it was under 10 mm. The values for the zone of inhibition at 100 µg/mL with Escherichia coli [13], in the assay on Staphylococcus aureus [15] and with Bacillus subtilis [18] were under 10 mm, 15 mm and 15 mm, respectively. In addition, the MIC against Candida albicans [2] came out at 12.5 µg/mL (≈ 32.4 µM); against Aspergillus flavus [4], 25 µg/mL (≈ 64.9 µM); against Aspergillus fumigatus [6], 12.5 µg/mL (≈ 32.4 µM); against Aspergillus niger [8], 6.25 µg/mL (≈ 16.2 µM); in the assay on Klebsiella pneumoniae [10] it was 25 µg/mL (≈ 64.9 µM); in the assay with Salmonella typhi [12], 50 µg/mL (≈ 130 µM). Besides, the MIC in the assay on Bacillus subtilis [14] was 6.25 µg/mL (≈ 16.2 µM); against Staphylococcus aureus [16], 6.25 µg/mL (≈ 16.2 µM); in the assay on Escherichia coli [17] it was 50 µg/mL (≈ 130 µM).
For `O=C1c2ccccc2C(=O)N1CCCCOc1cc(C(F)(F)F)nc2ccc(F)cc12`, the zone of inhibition at 100 µg/mL in the assay on Candida albicans [1] was determined as 15 mm; in the assay with Aspergillus flavus [3], 12 mm; in the assay with Aspergillus fumigatus [5] it was 12 mm; in the assay with Aspergillus niger [7] it was 17 mm; in the assay on Klebsiella pneumoniae [9], 12 mm; in the assay on Salmonella typhi [11] it was 12 mm. The zone of inhibition at 100 µg/mL with Escherichia coli [13] was under 10 mm; in the assay with Staphylococcus aureus [15], 15 mm; in the assay on Bacillus subtilis [18], 15 mm. The MIC was found to be 6.25 µg/mL (≈ 14.5 µM) against Candida albicans [2]; 12.5 µg/mL (≈ 28.9 µM) with Aspergillus flavus [4]; 12.5 µg/mL (≈ 28.9 µM) against Aspergillus fumigatus [6]; 6.25 µg/mL (≈ 14.5 µM) in the assay with Aspergillus niger [8]; 12.5 µg/mL (≈ 28.9 µM) against Klebsiella pneumoniae [10]; 12.5 µg/mL (≈ 28.9 µM) against Salmonella typhi [12]. The MIC against Bacillus subtilis [14] worked out at 6.25 µg/mL (≈ 14.5 µM); against Staphylococcus aureus [16], 6.25 µg/mL (≈ 14.5 µM); in the assay with Escherichia coli [17], 25 µg/mL (≈ 57.8 µM).
In the case of `O=c1cc(C(F)(F)F)n(C/C=C/CN2CCCC2)c2ccc(F)cc12`, the zone of inhibition at 100 µg/mL in the assay on Candida albicans [1] is 15 mm; in the assay with Aspergillus flavus [3] it was 12 mm; in the assay with Aspergillus fumigatus [5], 12 mm; in the assay with Aspergillus niger [7] it was 12 mm; in the assay on Klebsiella pneumoniae [9] it was 12 mm; with Salmonella typhi [11], under 10 mm. The zone of inhibition at 100 µg/mL with Escherichia coli [13] is under 10 mm; in the assay with Staphylococcus aureus [15], 15 mm; with Bacillus subtilis [18] it was 12 mm. Also, the MIC with Candida albicans [2] was determined as 6.25 µg/mL (≈ 17.6 µM); against Aspergillus flavus [4], 12.5 µg/mL (≈ 35.3 µM); against Aspergillus fumigatus [6], 12.5 µg/mL (≈ 35.3 µM); in the assay with Aspergillus niger [8], 12.5 µg/mL (≈ 35.3 µM); against Klebsiella pneumoniae [10] it was 12.5 µg/mL (≈ 35.3 µM); with Salmonella typhi [12], 25 µg/mL (≈ 70.6 µM). Besides, the MIC in the assay with Bacillus subtilis [14] was 12.5 µg/mL (≈ 35.3 µM); with Staphylococcus aureus [16], 6.25 µg/mL (≈ 17.6 µM); with Escherichia coli [17] it was 50 µg/mL (≈ 141 µM).
`O=c1cc(C(F)(F)F)n(CCCCN2CCCC2)c2ccc(F)cc12`: the zone of inhibition at 100 µg/mL with Candida albicans [1] is 16 mm; in the assay with Aspergillus flavus [3], 12 mm; in the assay with Aspergillus fumigatus [5], 12 mm; in the assay on Aspergillus niger [7] it was 12 mm; in the assay with Klebsiella pneumoniae [9] it was 13 mm; in the assay on Salmonella typhi [11] it was 12 mm. Also, the zone of inhibition at 100 µg/mL was under 10 mm in the assay on Escherichia coli [13], 14 mm with Staphylococcus aureus [15] and 15 mm in the assay on Bacillus subtilis [18]. The MIC with Candida albicans [2] came out at 6.25 µg/mL (≈ 17.5 µM); against Aspergillus flavus [4], 12.5 µg/mL (≈ 35.1 µM); in the assay with Aspergillus fumigatus [6] it was 12.5 µg/mL (≈ 35.1 µM); in the assay with Aspergillus niger [8], 12.5 µg/mL (≈ 35.1 µM); with Klebsiella pneumoniae [10], 12.5 µg/mL (≈ 35.1 µM); against Salmonella typhi [12] it was 12.5 µg/mL (≈ 35.1 µM). In addition, the MIC is 6.25 µg/mL (≈ 17.5 µM) against Bacillus subtilis [14], 6.25 µg/mL (≈ 17.5 µM) against Staphylococcus aureus [16] and 50 µg/mL (≈ 140 µM) against Escherichia coli [17].
Turning to `O=C1c2ccccc2C(=O)N1CCCCOc1cc(C(F)(F)F)nc2ccccc12`, the zone of inhibition at 100 µg/mL with Candida albicans [1] was 17 mm; with Aspergillus flavus [3], under 10 mm; with Aspergillus fumigatus [5], 12 mm; in the assay on Aspergillus niger [7], 17 mm; in the assay with Klebsiella pneumoniae [9], 12 mm; with Salmonella typhi [11] it was under 10 mm. For the same compound, the zone of inhibition at 100 µg/mL in the assay on Escherichia coli [13] was under 10 mm; in the assay with Staphylococcus aureus [15] it was 16 mm; in the assay with Bacillus subtilis [18], 16 mm. Besides, the MIC was determined as 6.25 µg/mL (≈ 15.1 µM) against Candida albicans [2]; 25 µg/mL (≈ 60.3 µM) with Aspergillus flavus [4]; 12.5 µg/mL (≈ 30.2 µM) in the assay with Aspergillus fumigatus [6]; 6.25 µg/mL (≈ 15.1 µM) against Aspergillus niger [8]; 12.5 µg/mL (≈ 30.2 µM) against Klebsiella pneumoniae [10]; 25 µg/mL (≈ 60.3 µM) against Salmonella typhi [12]. In addition, the MIC against Bacillus subtilis [14] came out at 6.25 µg/mL (≈ 15.1 µM); in the assay on Staphylococcus aureus [16] it was 6.25 µg/mL (≈ 15.1 µM); against Escherichia coli [17], 50 µg/mL (≈ 121 µM).
For `O=c1cc(C(F)(F)F)n(CCCCN2CCOCC2)c2ccc(F)cc12`, the zone of inhibition at 100 µg/mL was 15 mm in the assay with Candida albicans [1]; under 10 mm in the assay with Aspergillus flavus [3]; under 10 mm in the assay on Aspergillus fumigatus [5]; 13 mm with Aspergillus niger [7]; under 10 mm in the assay with Klebsiella pneumoniae [9]; under 10 mm in the assay on Salmonella typhi [11]. The zone of inhibition at 100 µg/mL in the assay on Escherichia coli [13] was under 10 mm; with Staphylococcus aureus [15], 15 mm; in the assay with Bacillus subtilis [18] it was 13 mm. For the same compound, the MIC is 6.25 µg/mL (≈ 16.8 µM) with Candida albicans [2]; 25 µg/mL (≈ 67.1 µM) against Aspergillus flavus [4]; 25 µg/mL (≈ 67.1 µM) against Aspergillus fumigatus [6]; 12.5 µg/mL (≈ 33.6 µM) in the assay with Aspergillus niger [8]; 25 µg/mL (≈ 67.1 µM) with Klebsiella pneumoniae [10]; 25 µg/mL (≈ 67.1 µM) in the assay with Salmonella typhi [12]. For the same compound, the minimum inhibitory concentration (MIC) in the assay on Bacillus subtilis [14] worked out at 12.5 µg/mL (≈ 33.6 µM); against Staphylococcus aureus [16], 6.25 µg/mL (≈ 16.8 µM); in the assay with Escherichia coli [17], 50 µg/mL (≈ 134 µM).
